For 18 compounds, Ki results are on record in patent publication US20250312499A1, “KISSPEPTIN RECEPTOR (KISS1R) TARGETED THERAPEUTICS AND USES THEREOF” (priority 2024, published 2025).

The target in the assay is human kisspeptin receptor (Homo sapiens (Human), UniProt Q969F8). In words: Human KISS1R binding assay (membrane competition binding). Conditions: 90 min at room temperature; competition with 0.2 nM [125I]-metastin (45-54); Flp-In T-Rex 293 kisspeptin membranes; metal complexes nonradioactive Ga, In, Lu; read-out: hKiSSR Binding Ki (90 min). Summed up: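 Membranes from tetracycline-induced (48 h) Flp-In T-Rex 293 cells expressing receptor, 5–10 μg, incubated 90 min at room temperature with 0.2 nM [125I]-metastin (45-54) and competitor (typically 0–10,000 nM) in Tris/Mg/Ca/EGTA/0.1% BSA, pH 7.4. Filtration, washing, counting; Ki by non-linear regression.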

The structures appear in SMILES notation. Numbered stars: 1 amine (or outer) side, 2 acyl side, 3 side chain; on linkers, the order of the positions; unused ones are H or OH. Square brackets hold non-standard residues; d marks the D form. Peptide text beside a SMILES is read from it. * marks the point of attachment. X8 = COCCOCCOCCOCCOCCOCCOCCOCCOCCOCCOCCOCCOCCOCCOCCOCCOCCOCCOCCOCCOCCOCCOCCOCCOCCC(=O)*; DOTA = O=C(O)CN1CCN(CC(=O)O)CCN(CC(=O)*)CCN(CC(=O)O)CC1; Ala(9-anthryl) = N[C@@H](Cc1c2ccccc2cc2ccccc12)C(=O)O; Gly(N-(3-F-4-Me-benzyl)) = Cc1ccc(CNCC(=O)*)cc1F; Bpa = N[C@@H](Cc1ccc(C(=O)c2ccccc2)cc1)C(=O)O; Api(1-amidino) = N=C(N)N1CCC(N)(C(=O)O)CC1; X14 = O=C([C@H]1CC[C@@H](CN[*:1])CC1)[*:2]; d(γGlu) = O=C(O)[C@@H](CCC(=O)[*:2])N[*:1]; Phe(3-F) = N[C@@H](Cc1cccc(F)c1)C(=O)O; Phe(4-I) = N[C@@H](Cc1ccc(I)cc1)C(=O)O; d2Nal = N[C@H](Cc1ccc2ccccc2c1)C(=O)O; Trx = NC[C@H]1CC[C@H](C(=O)O)CC1; X1 = O=C(CN1CCC(N[*:1])CC1)[*:2]; 4Pal = N[C@@H](Cc1ccncc1)C(=O)O; d4Pal = N[C@H](Cc1ccncc1)C(=O)O; 4Amb = NCc1ccc(C(=O)O)cc1; Octanoyl = CCCCCCCC(=O)*; Api = NC1(C(=O)O)CCNCC1; Ahx = NCCCCCC(=O)O; azaGly = NNC(=O)O Bounds are passed on as bounds.

Chain of human kisspeptin receptor (Q969F8 whole entry): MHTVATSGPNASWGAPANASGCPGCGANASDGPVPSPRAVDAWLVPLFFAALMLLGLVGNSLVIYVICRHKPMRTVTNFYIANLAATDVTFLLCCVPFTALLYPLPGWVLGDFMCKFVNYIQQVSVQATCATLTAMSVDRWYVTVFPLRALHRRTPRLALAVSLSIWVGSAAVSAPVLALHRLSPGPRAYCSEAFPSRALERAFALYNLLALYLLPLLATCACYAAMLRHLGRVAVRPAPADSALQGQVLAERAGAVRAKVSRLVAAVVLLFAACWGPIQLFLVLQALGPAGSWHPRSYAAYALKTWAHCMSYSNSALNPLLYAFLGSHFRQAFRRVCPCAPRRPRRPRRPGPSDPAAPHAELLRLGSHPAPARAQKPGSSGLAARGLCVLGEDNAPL

In the case of `Cc1ccc(CNCC(=O)N2CCC(NC(=O)[C@H](CC(C)C)NC(=O)NNC(=O)[C@H](Cc3cccc(F)c3)NC(=O)[C@@H](NC(=O)[C@H](CC(N)=O)NC(=O)[C@H](CCC(=O)O)NC(=O)[C@H]3CC[C@H](CNC(=O)CN4CCN(CC(=O)O)CCN(CC(=O)O)CCN(CC(=O)O)CC4)CC3)[C@@H](C)O)(C(=O)N[C@@H](Cc3c[nH]c4ccccc34)C(N)=O)CC2)cc1F` [Compound 160] ({DOTA-Trx}-ENT[Phe(3-F)][azaGly]L[Api](Gly(N-(3-F-4-Me-benzyl)))W-NH2), the inhibitory constant (Ki) (commonly the dissociation constant of the complex between target and ligand, obtained from inhibition or displacement) is below 0.01 µM.

Consider `Cc1ccc(CNCC(=O)N2CCC(NC(=O)[C@H](CC(C)C)NC(=O)NNC(=O)[C@H](Cc3cccc(F)c3)NC(=O)[C@@H](NC(=O)[C@H](CC(N)=O)NC(=O)[C@@H](CCC(=O)O)NC(=O)[C@H]3CC[C@H](CNC(=O)CN4CCN(CC(=O)O)CCN(CC(=O)O)CCN(CC(=O)O)CC4)CC3)[C@@H](C)O)(C(=O)N[C@@H](Cc3c[nH]c4ccccc34)C(N)=O)CC2)cc1F` [Compound 161] ({DOTA-Trx}-[dE]NT[Phe(3-F)][azaGly]L[Api](Gly(N-(3-F-4-Me-benzyl)))W-NH2), for which the inhibition constant Ki is below 0.01 µM.

For `Cc1ccc(CNCC(=O)N2CCC(NC(=O)[C@H](CC(C)C)NC(=O)NNC(=O)[C@H](Cc3cccc(F)c3)NC(=O)[C@@H](NC(=O)[C@H](CC(N)=O)NC(=O)[C@H](CCCCN)NC(=O)CN3CCC(NC(=O)CN4CCN(CC(=O)O)CCN(CC(=O)O)CCN(CC(=O)O)CC4)CC3)[C@@H](C)O)(C(=O)N[C@@H](Cc3c[nH]c4ccccc34)C(N)=O)CC2)cc1F` [Compound 164] ({DOTA}-[X1]KNT[Phe(3-F)][azaGly]L[Api](Gly(N-(3-F-4-Me-benzyl)))W-NH2), the inhibition constant Ki was below 0.01 µM.

Regarding `Cc1ccc(CNCC(=O)N2CCC(NC(=O)[C@H](CC(C)C)NC(=O)NNC(=O)[C@H](Cc3ccccc3)NC(=O)[C@H]3CC[C@H](CNC(=O)CC[C@@H](NC(=O)CN4CCN(CC(=O)O)CCN(CC(=O)O)CCN(CC(=O)O)CC4)C(=O)O)CC3)(C(=O)N[C@@H](Cc3c[nH]c4ccccc34)C(N)=O)CC2)cc1F` [Compound 165] ({DOTA-d(γGlu)-Trx}-F[azaGly]L[Api](Gly(N-(3-F-4-Me-benzyl)))W-NH2), the Ki is below 0.01 µM.

On to `Cc1ccc(CNCC(=O)N2CCC(NC(=O)[C@H](CC(C)C)NC(=O)NNC(=O)[C@H](Cc3ccccc3)NC(=O)[C@H]3CC[C@H](CNC(=O)[C@@H](CCC(=O)O)NC(=O)CN4CCN(CC(=O)O)CCN(CC(=O)O)CCN(CC(=O)O)CC4)CC3)(C(=O)N[C@@H](Cc3c[nH]c4ccccc34)C(N)=O)CC2)cc1F` [Compound 166] ({DOTA}-[dE][Trx]F[azaGly]L[Api](Gly(N-(3-F-4-Me-benzyl)))W-NH2), for which the inhibition constant Ki was below 0.01 µM.

As to `CSCC[C@H](NC(=O)c1ccc(CNC(=O)CN2CCN(CC(=O)O)CCN(CC(=O)O)CCN(CC(=O)O)CC2)cc1)C(=O)N[C@H](C(=O)NCc1ccc(C(=O)N[C@@H](CCSC)C(=O)N[C@H](C(=O)N[C@@H](CCCCNC(=O)CCCCC(=O)N[C@@H](CC(N)=O)C(=O)N[C@H](C(=O)N[C@@H](Cc2ccccc2)C(=O)NNC(=O)N[C@@H](CC(C)C)C(=O)NC2(C(=O)N[C@@H](Cc3c[nH]c4ccccc34)C(N)=O)CCN(C(=O)CNCc3ccc(C)c(F)c3)CC2)[C@@H](C)O)C(=O)O)C(C)C)cc1)C(C)C` [Compound 167], the inhibitory constant (Ki) is below 0.01 µM.

As for `CSCC[C@H](NC(=O)c1ccc(CNC(=O)CN2CCN(CC(=O)O)CCN(CC(=O)O)CCN(CC(=O)O)CC2)cc1)C(=O)N[C@@H](Cc1c[nH]c2ccccc12)C(=O)N[C@@H](CCCCNC(=O)CCCCC(=O)N[C@@H](CC(N)=O)C(=O)N[C@H](C(=O)N[C@@H](Cc1ccccc1)C(=O)NNC(=O)N[C@@H](CC(C)C)C(=O)NC1(C(=O)N[C@@H](Cc2c[nH]c3ccccc23)C(N)=O)CCN(C(=O)CNCc2ccc(C)c(F)c2)CC1)[C@@H](C)O)C(=O)O` [Compound 168], the inhibitory constant (Ki) is below 0.01 µM.

With `Cc1ccc(CNCC(=O)N2CCC(NC(=O)[C@H](CC(C)C)NC(=O)NNC(=O)[C@H](Cc3cccc(F)c3)NC(=O)[C@@H](NC(=O)[C@H](CC(N)=O)NC(=O)CCCCCNC(=O)CN3CCN(CC(=O)O)CCN(CC(=O)O)CCN(CC(=O)O)CC3)[C@@H](C)O)(C(=O)N[C@@H](Cc3ccncc3)C(N)=O)CC2)cc1F` [Compound 169] ({DOTA-Ahx}-NT[Phe(3-F)][azaGly]L[Api](Gly(N-(3-F-4-Me-benzyl)))[4Pal]-NH2), the inhibition constant (Ki) is below 0.01 µM.

As to `Cc1ccc(CNCC(=O)N2CCC(NC(=O)[C@H](CC(C)C)NC(=O)NNC(=O)[C@H](Cc3cccc(F)c3)NC(=O)[C@@H](NC(=O)[C@H](CC(N)=O)NC(=O)[C@H](CCC(=O)O)NC(=O)[C@H]3CC[C@@H](CNC(=O)CN4CCN(CC(=O)O)CCN(CC(=O)O)CCN(CC(=O)O)CC4)CC3)[C@@H](C)O)(C(=O)N[C@@H](Cc3ccncc3)C(N)=O)CC2)cc1F` [Compound 170] ({DOTA}-[X14]ENT[Phe(3-F)][azaGly]L[Api](Gly(N-(3-F-4-Me-benzyl)))[4Pal]-NH2), the Ki is below 0.01 µM.

As for `Cc1ccc(CNCC(=O)N2CCC(NC(=O)[C@H](CC(C)C)NC(=O)NNC(=O)[C@H](Cc3cccc(F)c3)NC(=O)[C@@H](NC(=O)[C@H](CC(N)=O)NC(=O)[C@H](CCC(=O)O)NC(=O)CN3CCN(CC(=O)O)CCN(CC(=O)O)CCN(CC(=O)O)CC3)[C@@H](C)O)(C(=O)N[C@@H](Cc3ccncc3)C(N)=O)CC2)cc1F` [Compound 171] ({DOTA}-ENT[Phe(3-F)][azaGly]L[Api](Gly(N-(3-F-4-Me-benzyl)))[4Pal]-NH2), the inhibitory constant (Ki) was in the range of 0.01 to 0.1 µM.

For `Cc1ccc(CNCC(=O)N2CCC(NC(=O)[C@H](CC(C)C)NC(=O)NNC(=O)[C@H](Cc3ccccc3)NC(=O)CCCCCNC(=O)[C@H](Cc3ccc(O)cc3)NC(=O)CNC(=O)c3ccc(CNC(=O)CN4CCN(CC(=O)O)CCN(CC(=O)O)CCN(CC(=O)O)CC4)cc3)(C(=O)N[C@@H](Cc3c[nH]c4ccccc34)C(N)=O)CC2)cc1F` [Compound 176] ({DOTA-4Amb}-GY[Ahx]F[azaGly]L[Api](Gly(N-(3-F-4-Me-benzyl)))W-NH2), the Ki is below 0.01 µM.

In the case of `CCCCCCCC(=O)N[C@H](Cc1ccc(O)cc1)C(=O)N[C@@H](CCCCNC(=O)CN1CCN(CC(=O)O)CCN(CC(=O)O)CCN(CC(=O)O)CC1)C(=O)N[C@@H](CC(N)=O)C(=O)N[C@H](C(=O)N[C@@H](Cc1ccccc1)C(=O)NNC(=O)N[C@@H](CC(C)C)C(=O)NC1(C(=O)N[C@@H](Cc2c[nH]c3ccccc23)C(N)=O)CCN(C(=O)CNCc2ccc(C)c(F)c2)CC1)[C@@H](C)O` [Compound 181] (Octanoyl-[dY]K(DOTA)NTF[azaGly]L[Api](Gly(N-(3-F-4-Me-benzyl)))W-NH2), the Ki was below 0.01 µM.

As to `COCCOCCOCCOCCOCCOCCOCCOCCOCCOCCOCCOCCOCCOCCOCCOCCOCCOCCOCCOCCOCCOCCOCCOCCOCCC(=O)N[C@H](Cc1ccc(O)cc1)C(=O)N[C@@H](CCCCNC(=O)CN1CCN(CC(=O)O)CCN(CC(=O)O)CCN(CC(=O)O)CC1)C(=O)N[C@@H](CC(N)=O)C(=O)N[C@H](C(=O)N[C@@H](Cc1ccccc1)C(=O)NNC(=O)N[C@@H](CC(C)C)C(=O)NC1(C(=O)N[C@@H](Cc2c[nH]c3ccccc23)C(N)=O)CCN(C(=N)N)CC1)[C@@H](C)O` [Compound 182] (X8-[dY]K(DOTA)NTF[azaGly]L[Api(1-amidino)]W-NH2), the Ki is below 0.01 µM.

In the case of `CC(C)C[C@H](NC(=O)NNC(=O)[C@H](Cc1ccccc1)NC(=O)[C@@H](NC(=O)[C@H](CC(N)=O)NC(=O)[C@H](Cc1ccc(C(=O)c2ccccc2)cc1)NC(=O)[C@@H](Cc1ccc(O)cc1)NC(=O)CCCCCNC(=O)CN1CCN(CC(=O)O)CCN(CC(=O)O)CCN(CC(=O)O)CC1)[C@@H](C)O)C(=O)NC1(C(=O)N[C@@H](Cc2c[nH]c3ccccc23)C(N)=O)CCN(C(=N)N)CC1` [Compound 183] ({DOTA-Ahx}-[dY][Bpa]NTF[azaGly]L[Api(1-amidino)]W-NH2), the inhibition constant Ki was below 0.01 µM.

Take `CC(C)C[C@H](NC(=O)NNC(=O)[C@H](Cc1ccccc1)NC(=O)[C@@H](NC(=O)[C@H](CC(N)=O)NC(=O)[C@H](Cc1c2ccccc2cc2ccccc12)NC(=O)[C@@H](Cc1ccc(O)cc1)NC(=O)CCCCCNC(=O)CN1CCN(CC(=O)O)CCN(CC(=O)O)CCN(CC(=O)O)CC1)[C@@H](C)O)C(=O)NC1(C(=O)N[C@@H](Cc2c[nH]c3ccccc23)C(N)=O)CCN(C(=N)N)CC1` [Compound 184] ({DOTA-Ahx}-[dY][Ala(9-anthryl)]NTF[azaGly]L[Api(1-amidino)]W-NH2): the Ki was below 0.01 µM.

On to `CC(C)C[C@H](NC(=O)NNC(=O)[C@H](Cc1ccccc1)NC(=O)[C@@H](NC(=O)[C@H](CC(N)=O)NC(=O)[C@@H](Cc1ccc2ccccc2c1)NC(=O)[C@@H](Cc1ccc(O)cc1)NC(=O)CCCCCNC(=O)CN1CCN(CC(=O)O)CCN(CC(=O)O)CCN(CC(=O)O)CC1)[C@@H](C)O)C(=O)NC1(C(=O)N[C@@H](Cc2ccc(O)cc2)C(N)=O)CCN(C(=N)N)CC1` [Compound 185] ({DOTA-Ahx}-[dY][d2Nal]NTF[azaGly]L[Api(1-amidino)]Y-NH2), for which the Ki is below 0.01 µM.

With `Cc1ccc(CNCC(=O)N2CCC(NC(=O)[C@H](CC(C)C)NC(=O)NNC(=O)[C@H](Cc3ccccc3)NC(=O)CCCCCNC(=O)[C@@H](Cc3ccncc3)NC(=O)[C@@H](Cc3ccc(O)cc3)NC(=O)CN3CCN(CC(=O)O)CCN(CC(=O)O)CCN(CC(=O)O)CC3)(C(=O)N[C@@H](Cc3c[nH]c4ccccc34)C(N)=O)CC2)cc1F` [Compound 186] ({DOTA}-[dY][d4Pal][Ahx]F[azaGly]L[Api](Gly(N-(3-F-4-Me-benzyl)))W-NH2), the Ki is below 0.01 µM.

For the compound `CC(C)C[C@H](NC(=O)NNC(=O)[C@H](Cc1ccc(I)cc1)NC(=O)[C@@H](NC(=O)[C@H](CC(N)=O)NC(=O)[C@H](Cc1c2ccccc2cc2ccccc12)NC(=O)[C@@H](Cc1ccc(O)cc1)NC(=O)CN1CCN(CC(=O)O)CCN(CC(=O)O)CCN(CC(=O)O)CC1)[C@@H](C)O)C(=O)NC1(C(=O)N[C@@H](Cc2ccncc2)C(N)=O)CCN(C(=N)N)CC1` [Compound 188] ({DOTA}-[dY][Ala(9-anthryl)]NT[Phe(4-I)][azaGly]L[Api(1-amidino)][4Pal]-NH2), the Ki was 0.01 to 0.1 µM.
